# According to patent publication US7271198B2, “Method of treating autoimmune diseases” (Wake Forest University, priority 2000, dated 2007):
# Several values for one entry are separate records, joined by “and”; a condition that tells them apart may be missing. Equal values may be shown once.
# Key:
# [1] = tested on: CD154 transcript; assay: RT-PCR of CD154 transcript in SLE T cells; type: cell-based, human
# Description: Because SLE T cells are often activated (D. T. Y. Yu et al., J. Exp. Med. 151, 91 (1980).), the up-regulation of CD154 and IL-10 and down-regulation of IFN-γ may reflect skewed gene expression due to enhanced recruitment of HDACs to the promoters of these genes. The resulting disequilibrium of acetylation might be expected to alter the chromatin structure of the promoters (R. D. Komberg and Y. Lorch, Curr. Opin. Gen. Dev. 9, 148 (1999)), thereby activating previously silenced genes while repressing expressed genes. To determine if TSA can down-regulate CD154 transcript expression, T cells from eight SLE subjects were treated with increasing concentrations of TSA over 18 hr.
# T cells were cultured in the absence or presence of increasing concentrations of TSA for 18 hr in 5% CO2 at 37° C. RNA was isolated, cDNAs were prepared, and RT-PCR was performed as previously detailed (D. Laxminarayana, et al., J. Clin. Invest. 92, 2207 (1993)). The primers used were: […]
# The reaction mixtures were subjected to 30 cycles of denaturation (94° C., 1 min) and annealing for 1 min at 53° C. (CD154), […] (GAPDH) and 55° C. (IL-10 and IFN-γ). Extension was for 2 min at 72° C. with a final extension of 7 min at 72° C. using a DNA thermal cycler (Perkin-Elmer).
# When SLE T cells were activated with phorbol myristate acetate (PMA) and ionomycin (IO), CD154 mRNA content increased 100%, peaked at 3 hr, and waned thereafter (FIGS. 1C and 1D).
# [2] = tested on: TGF-β1 mRNA; assay: PCR of TGF-β1 mRNA in SLE and control T cells / PBMCs; type: cell-based, human
# Method: Gene expression of TGF-β1 was tested to determine if the gene expression is suppressed by deacetylation of histones in SLE. In this determination, SLE PBMCs or isolated T cells were treated with the histone deacetylase inhibitors (HDIs), TSA or SAHA, for 18hr. […] Subsequently, semi-quantitative PCR was performed to determine the amounts of […] transcripts in SLE and control T cells treated with vehicle or TSA (1000 ng/ml). […] There is no change in GAPDH transcript in normal and SLE T cells after treatment of HDIs. Increased TGF-β1 transcript was associated with a subsequent increase in TGF-β1 protein secretion by SLE PBMCs. When compared to vehicle treated PBMCs, total TGF-β1 protein in culture supernatants from SLE PBMCs increased by approximately 30%. In contrast, there was no increase in total TGF-β1 secretion in TSA treated cells in normal healthy controls. Similar results may be obtained by SAHA.
# [3] = tested on: IL-12 p35 and p40 transcripts; assay: IL-12 p35 and p40 transcripts in MRL/lpr splenocytes; type: cell-based, mouse
# Method: In this study, the question of whether TSA down-regulates transcription of both IL-12 p35 and p40 subunit mRNA was investigated. […] Splenocytes were stimulated with LPS and IFN-γ for 6 or 18 hr. […] When splenocytes were preincubated with TSA or SAHA for 18 hr and then stimulated with LPS and IFN-γ IL-12 p35 and p40 transcripts were undetectable (FIGS. 9B–D).
# [4] = tested on: MRL/lpr mice; assay: In vivo TSA in 12 wk MRL/lpr mice (0.5 mg/kg sc, 4 weeks); parameters: species or system mouse
# Method: TSA was administered to MRL/lpr mice at 12 wks of age coinciding with the time of onset of clinical disease. TSA was given subcutaneously (sc) at a dose of 0.5 mg/kg dissolved in […]; control mice were given the vehicle alone (40 μl DMSO). Proteinuria was assessed as a measure of albumin in mg/mouse/day prior to the initial dose (at 12 wks of age) and after four wks of treatment (at 16 wks of age). […] After four weeks of treatment, nine mice in each group were sacrificed. At necropsy, the weight of the spleens were measured and sera was collected. […] IFN-γ was measured by ellispot assay in splenocytes isolated from vehicle or TSA treated mice.
# TSA was administered to MRL/lpr mice at 12 wks of age at the time of onset of clinical disease. TSA was given subcutaneously (sc) at a dose of 0.5 mg/kg dissolved in 40 μl DMSO; control mice were given the vehicle alone (40 μl DMSO). After four weeks of treatment, nine mice in each group were sacrificed. One-half of one kidney was fixed in 10% formaldehyde/PBS, embedded in paraffin, and stained with hematoxylin and eosin. An examiner blinded to the treatment group quantified disease activity as follows: (a) Glomeruli were graded for hypercellularity (0–4), crescent formation (0–4), and inflammation (0–4). (b) The interstitium was graded for inflammation (0–4). Scores were additive (BALB/c mice historically receive scores of 0–0.5). Half of the second kidney was snap-frozen, embedded in OCT, frozen sections cut and analyzed for C3 deposition by immunofluorescence.
# In determining whether TSA suppresses autoantibody production anti-dsDNA and anti GBM-auto-antibodies were measured.
# [5] = tested on: MRL/lpr mice; assay: In vivo TSA in 26 week old MRL/lpr mice (5 mg/kg s.c. daily), proteinuria; parameters: species or system mouse
# Description: The effect of TSA on proteinuria and nitric oxide secretion and increased survival in 26 week old MRL/lpr mice was examined. In this age group, MRL/lpr mice developed full-blown disease with evidence of proliferative immune-complex-mediated glomerulo-nephritis, vasculitis, arthritis, and massive lymphadenopathy. Most of the mice expired by the age of 30 weeks. […] Urine was collected for a 24 hr time period on days 0, 7 and 14, and measured for protein and nitric oxide. Toxicity of TSA is being assessed by monitoring body weight, infection, abnormal behavior and survival of treated mice.
# [6] = 0.5 mg/kg sc, 4 weeks treatment
smiles,measurement,setting,value
"CC(/C=C/C(=O)NO)=C\[C@@H](C)C(=O)c1ccc(N(C)C)cc1 [TSA, Trichostatin A]",up-regulation of CD154 transcript on PMA+IO activation,"[1]; SLE T cells preincubated with TSA 18 hr (1000 ng/ml), then PMA+IO to 24 hr, vs cells not exposed, P<0.001",significantly reduced
same,GAPDH mRNA expression,"[1]; SLE T cells, increasing TSA",does not modify
same,maximal inhibition of CD154 transcript,"[1]; SLE T cells, increasing TSA (0–1000 ng/ml), 18 hr, relative to GAPDH",60%
same,increase in TGF-β1 transcript,[2]; SLE PBMCs exposed to TSA and SAHA (summary statement),eight-fold
same,induction of TGF-β1 mRNA compared to vehicle treated cells,"[2]; SLE T cells, 1000 ng/ml TSA, 18 hr, real time PCR",8 fold
same,"TGF-β1 mRNA levels, semi-quantitative PCR","[2]; SLE T cells, TSA 1000 ng/ml",increased
same,TGF-β1 mRNA change,"[2]; SLE T cells, TSA concentrations to 500 ng/ml",modest increase
same,LPS and IFN-γ induced IL-12 p35 and p40 transcripts,"[3]; splenocytes from 10-wk old MRL/lpr mice preincubated 18 hr, stimulated 6 or 18 hr",undetectable
same,TSA concentration that completely suppressed constitutive IL-12 p35 and p40 transcripts,[3]; splenocytes from 24-wk MRL/lpr mice,above 100 ng/ml
same,proteinuria (albumin),"[4]; 0.5 mg/kg sc from 12 wks, after four wks, vs vehicle",prevented an increase in proteinuria
same,C3 deposition (kidney immunofluorescence),[4]; [6],did not show change
same,glomerulonephritis and renal score,[4]; [6],significant reduction
same,"number of IFN-γ secreting cells (ellispot, splenocytes)","[4]; 0.5 mg/kg sc, four weeks",significant decrement
same,spleen weight,"[4]; 0.5 mg/kg sc, four weeks, vs vehicle",significantly decreased in weight
same,overall health,"[4]; 0.5 mg/kg sc, vs vehicle",signs of better overall health
same,anti-dsDNA and anti GBM auto-antibodies,"[4]; TSA vs vehicle, 4 weeks treatment",no significant change
same,proteinuria in day 7 and day 14 compared to day 0,"[5]; 26 week old MRL/lpr mice, 5 mg/kg TSA s.c. daily, in comparison to vehicle",less proteinuria
same,"Proteinuria, DAY 0","[5]; individual 26 week old MRL/lpr mice of TSA group, day 0 (baseline), 24 hr urine",964 µg/day and 10 µg/day and 16689 µg/day and 213 µg/day and 14420 µg/day and 107 µg/day and 5 µg/day
same,"Proteinuria, DAY 7","[5]; individual 26 week old MRL/lpr mice, 5 mg/kg TSA s.c. daily, day 7, 24 hr urine, 5 mg/kg",340 µg/day and 4.6 µg/day and 274 µg/day and 54 µg/day and 4701 µg/day and 80 µg/day and 9 µg/day
same,"Proteinuria, DAY 14","[5]; individual 26 week old MRL/lpr mice, 5 mg/kg TSA s.c. daily, day 14, 24 hr urine, 5 mg/kg",242 µg/day and 4.3 µg/day and 865 µg/day and 82 µg/day and 3081 µg/day and 25 µg/day and 10 µg/day
